# Reference: patent publication US20210002301A1, “NOVEL ISOTHIAZOLO-AZEPINONE BICYCLES, PROCESSES FOR THEIR PREPARATION AND THEIR USE AS HERBICIDES AND/OR PLANT GROWTH REGULATORS” (Bayer Aktiengesellschaft, priority 2017, published 2021)
# Experiments:
# Conditions in all cases: Dosage 320
# [1] = test system: VERPE; assay: Post-emergence herbicidal test; type: in vivo, Veronica persica
# [2] = test system: POLCO; assay: Pre-emergence herbicidal test; type: in vivo, Polygonum convolvulus
# [3] = test system: ABUTH; assay: Pre-emergence herbicidal test; type: in vivo, Abutilon theophrasti
# [4] = test system: VIOTR; assay: Pre-emergence herbicidal test; type: in vivo, Viola tricolor
# [5] = test system: PHBPU; assay: Post-emergence herbicidal test; type: in vivo, Pharbitis purpurea
# [6] = test system: SETVI; assay: Post-emergence herbicidal test; type: in vivo, Setaria viridis
# [7] = test system: STEME; assay: Pre-emergence herbicidal test; type: in vivo, Stellaria media
# [8] = test system: ECHCG; assay: Pre-emergence herbicidal test; type: in vivo, Echinochloa crus-galli
# [9] = test system: VERPE; assay: Pre-emergence herbicidal test; type: in vivo, Veronica persica
# [10] = test system: PHBPU; assay: Pre-emergence herbicidal test; type: in vivo, Pharbitis purpurea
# [11] = test system: ALOMY; assay: Pre-emergence herbicidal test; type: in vivo, Alopecurus myosuroides
# [12] = test system: SETVI; assay: Pre-emergence herbicidal test; type: in vivo, Setaria viridis
# [13] = test system: POLCO; assay: Post-emergence herbicidal test; type: in vivo, Polygonum convolvulus
# [14] = test system: ECHCG; assay: Post-emergence herbicidal test; type: in vivo, Echinochloa crus-galli
# [15] = test system: AMARE; assay: Post-emergence herbicidal test; type: in vivo, Amaranthus retroflexus
# [16] = test system: ABUTH; assay: Post-emergence herbicidal test; type: in vivo, Abutilon theophrasti
# [17] = test system: ALOMY; assay: Post-emergence herbicidal test; type: in vivo, Alopecurus myosuroides
# [18] = test system: AMARE; assay: Pre-emergence herbicidal test; type: in vivo, Amaranthus retroflexus
# [19] = test system: VIOTR; assay: Post-emergence herbicidal test; type: in vivo, Viola tricolor
# [20] = test system: STEME; assay: Post-emergence herbicidal test; type: in vivo, Stellaria media
# [21] = test system: LOLRI; assay: Pre-emergence herbicidal test; type: in vivo
# [22] = test system: MATIN; assay: Pre-emergence herbicidal test; type: in vivo, Matricaria inodora
# [23] = test system: HORMU; assay: Pre-emergence herbicidal test; type: in vivo
Structure (SMILES),VERPE [1],POLCO [2],ABUTH [3],VIOTR [4],PHBPU [5],SETVI [6],STEME [7],ECHCG [8],VERPE [9],PHBPU [10],ALOMY [11],SETVI [12],POLCO [13],ECHCG [14],AMARE [15],ABUTH [16],ALOMY [17],AMARE [18],VIOTR [19],STEME [20],other results
O=C(Nc1nsc2c1C=CCN(C1CCCCC1)C2=O)C(F)F [Example I-25],90,100,100,100,100,100,100,100,100,100,100,100,100,100,100,100,100,100,100,100,–
O=C1c2snc(NC(=O)C(F)(F)C(F)(F)F)c2C=CCN1CC1CCCCC1 [Example I-61],90,100,100,100,90,80,100,100,100,100,90,100,100,90,100,80,90,100,100,100,LOLRI [21]: 100; MATIN [22]: 100; HORMU [23]: 100
"Nc1nsc2c1C=CCN(CC1CCCCC1)C2=O [Example I-04, 3-amino-7-(cyclohexylmethyl)-6H-isothiazolo[5,4-c]azepin-8-one]",90,100,100,100,100,90,100,100,100,100,100,100,100,100,100,100,100,100,100,100,LOLRI [21]: 100; MATIN [22]: 100; HORMU [23]: 90
